Test results as given in patent US8859535B2, “Hydroxy substituted isoquinolinone derivatives” (Novartis AG, priority 2011, dated 2014).

How the values were obtained:
[1] = biological target: T1, human MDM2 protein (amino acids 2-188) (Homo sapiens, UniProt Q00987); assay: p53-MDM2 TR-FRET assay (p53-MDM2 Assay 1); format: binding; conditions: 1.25 nM MDM2-biotinylated, 10 nM Cy5-p53 peptide; read-out: IC50 (μM) of p53-Hdm2 inhibition (TR-FRET) Assay 1
T1 construct: human MDM2 protein (amino acids 2-188); made in house
T1 sequence (Q00987 2-188): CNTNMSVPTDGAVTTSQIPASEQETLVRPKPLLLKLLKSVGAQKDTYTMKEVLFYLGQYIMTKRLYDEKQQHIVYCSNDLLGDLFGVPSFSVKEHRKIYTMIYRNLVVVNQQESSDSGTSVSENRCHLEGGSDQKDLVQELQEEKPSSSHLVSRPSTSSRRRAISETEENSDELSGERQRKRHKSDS
Outline: (§1)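 C-terminally biotinylated MDM2 (aa 2-188, 1.25 nM) or MDM4 (aa 2-185, 2.5 nM) with Eu-streptavidin (0.625 nM), 15 min preincubation, then 10 nM Cy5-p53 peptide (aa18-26), 15 min room temperature; TR-FRET 665/620 nm ratio, IC50 by curve fit. Modified MDM2 Assay 2 uses 0.1 nM MDM2 and 0.1 nM Eu-streptavidin.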

[2] = biological target: T2, human MDM4 protein (amino acids 2-185) (Homo sapiens, UniProt O15151); assay: p53-MDM4 TR-FRET assay (p53-MDM4 Assay 1); format: binding; conditions: 2.5 nM MDM4-biotinylated, 10 nM Cy5-p53 peptide; read-out: IC50 (μM) of p53-Hdm4 inhibition (TR-FRET) Assay 1
T2 construct: human MDM4 protein (amino acids 2-185); made in house
T2 sequence (O15151 2-185): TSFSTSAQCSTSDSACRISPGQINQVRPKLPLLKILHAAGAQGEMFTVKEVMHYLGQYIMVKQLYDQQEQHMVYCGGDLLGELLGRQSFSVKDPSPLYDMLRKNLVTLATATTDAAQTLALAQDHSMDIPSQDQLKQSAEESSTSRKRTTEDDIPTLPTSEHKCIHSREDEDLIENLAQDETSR
Outline: as §1

SMILES | IC50 [1] | IC50 [2]
COc1cc2c(cc1OC(C)C)[C@H](c1ccc(Cl)cc1)N(c1ccc(C3(O)CCCC3)cc1)C(=O)C2 [Example 50, (S)-1-(4-Chloro-phenyl)-2-[4-(1-hydroxy-cyclopentyl)-phenyl]-7-isopropoxy-6-methoxy-1,4-dihydro-2H-isoquinolin-3-one] | 0.246 µM | 90.2 µM
COc1cc2c(cc1OC(C)C)[C@H](c1ccc(Cl)cc1)N(c1ccc(C3(O)CCC3)cc1)C(=O)C2 [Example 51, (S)-1-(4-Chloro-phenyl)-2-[4-(1-hydroxy-cyclobutyl)-phenyl]-7-isopropoxy-6-methoxy-1,4-dihydro-2H-isoquinolin-3-one] | 0.0731 µM | 45.3 µM
COc1cc2c(cc1OC(C)C)[C@H](c1ccc(Cl)cc1)N(c1ccc(C3(O)CN(C(=O)OC(C)(C)C)C3)cc1)C(=O)C2 [Example 55, 3-{4-[(S)-1-(4-Chloro-phenyl)-7-isopropoxy-6-methoxy-3-oxo-3,4-dihydro-1H-isoquinolin-2-yl]-phenyl}-3-hydroxy-azetidine-1-carboxylic acid tert-butyl ester] | 0.0926 µM | 26.3 µM
CNC(=O)N1CC(O)(c2ccc(N3C(=O)Cc4cc(OC)c(OC(C)C)cc4[C@@H]3c3ccc(Cl)cc3)cc2)C1 [Example 60, 3-{4-[(S)-1-(4-Chloro-phenyl)-7-isopropoxy-6-methoxy-3-oxo-3,4-dihydro-1H-isoquinolin-2-yl]-phenyl}-3-hydroxy-azetidine-1-carboxylic acid methylamide] | 0.186 µM | 88.4 µM
COc1cc2c(cc1OC(C)C)[C@H](c1ccc(Cl)cc1)N(c1ccc(C3(O)CN(S(C)(=O)=O)C3)cc1)C(=O)C2 [Example 62, (S)-1-(4-Chloro-phenyl)-2-[4-(3-hydroxy-1-methanesulfonyl-azetidin-3-yl)-phenyl]-7-isopropoxy-6-methoxy-1,4-dihydro-2H-isoquinolin-3-one] | 0.342 µM | 77 µM
COc1cc2c(cc1OC(C)C)[C@H](c1ccc(Cl)cc1)N(c1ccc(C(C)(O)C3CCCCC3)cc1)C(=O)C2 (stereo partly drawn) [Example 63, (S)-1-(4-Chloro-phenyl)-2-[4-(1-cyclohexyl-1-hydroxy-ethyl)-phenyl]-7-isopropoxy-6-methoxy-1,4-dihydro-2H-isoquinolin-3-one] | 0.0154 µM | 40.5 µM
COc1cc2c(cc1OC(C)C)[C@H](c1ccc(Cl)cc1)N(c1ccc(C(C)(O)C3CN(C(=O)OC(C)(C)C)C3)cc1)C(=O)C2 (stereo partly drawn) [Example 64, 3-(1-{4-[(S)-1-(4-Chloro-phenyl)-7-isopropoxy-6-methoxy-3-oxo-3,4-dihydro-1H-isoquinolin-2-yl]-phenyl}-1-hydroxy-ethyl)-azetidine-1-carboxylic acid tert-butyl ester] | 0.0072 µM | 10.6 µM
COc1cc2c(cc1OC(C)C)[C@H](c1ccc(Cl)cc1)N(c1ccc(C(C)(O)C3CNC3)cc1)C(=O)C2 (stereo partly drawn) [Example 65, (S)-2-[4-(1-Azetidin-3-yl-1-hydroxy-ethyl)-phenyl]-1-(4-chloro-phenyl)-7-isopropoxy-6-methoxy-1,4-dihydro-2H-isoquinolin-3-one] | 0.0423 µM | 41.2 µM
COc1cc2c(cc1OC(C)C)[C@H](c1ccc(Cl)cc1)N(c1ccc(C(C)(O)C3CN(C(=O)N(C)C)C3)cc1)C(=O)C2 (stereo partly drawn) [Example 68, 3-(1-{4-[(S)-1-(4-Chloro-phenyl)-7-isopropoxy-6-methoxy-3-oxo-3,4-dihydro-1H-isoquinolin-2-yl]-phenyl}-1-hydroxy-ethyl)-azetidine-1-carboxylic acid dimethylamide] | 0.0152 µM | 15 µM
COc1cc2c(cc1OC(C)C)[C@H](c1ccc(Cl)cc1)N(c1ccc(C(C)(O)C3CN(CCC(F)(F)F)C3)cc1)C(=O)C2 (stereo partly drawn) [Example 69, (S)-1-(4-Chloro-phenyl)-2-(4-{1-hydroxy-1-[1-(3,3,3-trifluoro-propyl)-azetidin-3-yl]-ethyl}-phenyl)-7-isopropoxy-6-methoxy-1,4-dihydro-2H-isoquinolin-3-one] | 0.0363 µM | 40.5 µM
CCN1CC(C(C)(O)c2ccc(N3C(=O)Cc4cc(OC)c(OC(C)C)cc4[C@@H]3c3ccc(Cl)cc3)cc2)C1 (stereo partly drawn) [Example 71, (S)-1-(4-Chloro-phenyl)-2-{4-[1-(1-ethyl-azetidin-3-yl)-1-hydroxy-ethyl]-phenyl}-7-isopropoxy-6-methoxy-1,4-dihydro-2H-isoquinolin-3-one] | 0.026 µM | 30.1 µM
COc1cc2c(cc1OC(C)C)[C@H](c1ccc(Cl)cc1)N(c1ccc(C(C)(O)C3CN(C(C)C)C3)cc1)C(=O)C2 (stereo partly drawn) [Example 72, (S)-1-(4-Chloro-phenyl)-2-{4-[1-hydroxy-1-(1-isopropyl-azetidin-3-yl)-ethyl]-phenyl}-7-isopropoxy-6-methoxy-1,4-dihydro-2H-isoquinolin-3-one] | 0.0234 µM | 18.4 µM
COc1cc2c(cc1OC(C)C)[C@H](c1ccc(Cl)cc1)N(c1ccc(C(C)(O)C3CN(S(C)(=O)=O)C3)cc1)C(=O)C2 (stereo partly drawn) [Example 73, (S)-1-(4-Chloro-phenyl)-2-{4-[1-hydroxy-1-(1-methanesulfonyl-azetidin-3-yl)-ethyl]-phenyl}-7-isopropoxy-6-methoxy-1,4-dihydro-2H-isoquinolin-3-one] | 0.0179 µM | 18.9 µM
COc1cc2c(cc1OC(C)C)[C@H](c1ccc(Cl)cc1)N(c1ccc(C(C)(O)C3CN(CC(F)(F)F)C3)cc1)C(=O)C2 (stereo partly drawn) [Example 74, (S)-1-(4-Chloro-phenyl)-2-(4-{1-hydroxy-1-[1-(2,2,2-trifluoro-ethyl)-azetidin-3-yl]-ethyl}-phenyl)-7-isopropoxy-6-methoxy-1,4-dihydro-2H-isoquinolin-3-one] | 0.0179 µM | 18 µM

The remaining lines, values ahead:

IC50 [1] | IC50 [2] | SMILES
0.0146 µM | 13.5 µM | COc1cc2c(cc1OC(C)C)[C@H](c1ccc(Cl)cc1)N(c1ccc(C(C)(O)C3CN(C(C)=O)C3)cc1)C(=O)C2 (stereo partly drawn) [Example 66, (S)-2-{4-[1-(1-Acetyl-azetidin-3-yl)-1-hydroxy-ethyl]-phenyl}-1-(4-chloro-phenyl)-7-isopropoxy-6-methoxy-1,4-dihydro-2H-isoquinolin-3-one]
0.0152 µM | 16.7 µM | CNC(=O)N1CC(C(C)(O)c2ccc(N3C(=O)Cc4cc(OC)c(OC(C)C)cc4[C@@H]3c3ccc(Cl)cc3)cc2)C1 (stereo partly drawn) [Example 67, 3-(1-{4-[(S)-1-(4-Chloro-phenyl)-7-isopropoxy-6-methoxy-3-oxo-3,4-dihydro-1H-isoquinolin-2-yl]-phenyl}-1-hydroxy-ethyl)-azetidine-1-carboxylic acid methylamide]
0.0547 µM | 60.1 µM | COc1cc2c(cc1OC(C)C)[C@H](c1ccc(Cl)cc1)N(c1ccc(C(C)(O)C3CN(C)C3)cc1)C(=O)C2 (stereo partly drawn) [Example 70, (S)-1-(4-Chloro-phenyl)-2-{4-[1-hydroxy-1-(1-methyl-azetidin-3-yl)-ethyl]-phenyl}-7-isopropoxy-6-methoxy-1,4-dihydro-2H-isoquinolin-3-one]
0.0043 µM | 4.95 µM | COc1cc2c(cc1OC(C)C)[C@H](c1ccc(Cl)cc1)N(c1ccc(C(C)(O)C3CCN(C(N)=O)CC3)cc1)C(=O)C2 (stereo partly drawn) [Example 75, 4-(1-{4-[(S)-1-(4-Chloro-phenyl)-7-isopropoxy-6-methoxy-3-oxo-3,4-dihydro-1H-isoquinolin-2-yl]-phenyl}-1-hydroxy-ethyl)-piperidine-1-carboxylic acid amide]
0.011 µM | 13.5 µM | COc1cc2c(cc1OC(C)C)[C@H](c1ccc(Cl)cc1)N(c1ccc(C(C)(O)C3CCN(CC(F)(F)F)CC3)cc1)C(=O)C2 (stereo partly drawn) [Example 77, (S)-1-(4-Chloro-phenyl)-2-(4-{1-hydroxy-1-[1-(2,2,2-trifluoro-ethyl)-piperidin-4-yl]-ethyl}-phenyl)-7-isopropoxy-6-methoxy-1,4-dihydro-2H-isoquinolin-3-one]
0.0043 µM | 3.18 µM | COc1cc2c(cc1OC(C)C)[C@H](c1ccc(Cl)cc1)N(c1ccc(C(C)(O)C3CCN(C(C)C)CC3)cc1)C(=O)C2 (stereo partly drawn) [Example 78, (S)-1-(4-Chloro-phenyl)-2-{4-[1-hydroxy-1-(1-isopropyl-piperidin-4-yl)-ethyl]-phenyl}-7-isopropoxy-6-methoxy-1,4-dihydro-2H-isoquinolin-3-one]
0.0052 µM | 5.63 µM | CNC(=O)N1CCC(C(C)(O)c2ccc(N3C(=O)Cc4cc(OC)c(OC(C)C)cc4[C@@H]3c3ccc(Cl)cc3)cc2)CC1 (stereo partly drawn) [Example 79, 4-(1-{4-[(S)-1-(4-Chloro-phenyl)-7-isopropoxy-6-methoxy-3-oxo-3,4-dihydro-1H-isoquinolin-2-yl]-phenyl}-1-hydroxy-ethyl)-piperidine-1-carboxylic acid methylamide]
0.0052 µM | 5.11 µM | COc1cc2c(cc1OC(C)C)[C@H](c1ccc(Cl)cc1)N(c1ccc(C(C)(O)C3CCN(C(=O)C4CC4)CC3)cc1)C(=O)C2 (stereo partly shown) [Example 80]
0.0057 µM | 5.11 µM | COc1cc2c(cc1OC(C)C)[C@H](c1ccc(Cl)cc1)N(c1ccc(C(C)(O)C3CCN(S(C)(=O)=O)CC3)cc1)C(=O)C2 (stereo partly drawn) [Example 81, (S)-1-(4-Chloro-phenyl)-2-{4-[1-hydroxy-1-(1-methanesulfonyl-piperidin-4-yl)-ethyl]-phenyl}-7-isopropoxy-6-methoxy-1,4-dihydro-2H-isoquinolin-3-one]
